In US6706740B2, “Fungicidal heterocyclic aromatic amides and their compositions, methods of use and preparation” (Dow AgroSciences LLC, priority 1999, dated 2004):
Like-named read-outs stand apart in the source and are kept apart here.

How the values were obtained:
[1] = test system: Magnaporthe grisea (Pyricularia oryzae—PYRIOR); experiment: microbe, parasite or virus in culture; assay type: cell-based; details: Pyricularia oryzae, read-out: PYRIOR in vitro Growth Inhibition
[2] = test system: Phytophthora infestans (PHYTIN); experiment: microbe, parasite or virus in culture; assay type: cell-based; details: Phytophthora infestans, read-out: PHYTIN in vitro Growth Inhibition
[3] = test system: Leptosphaeria nodorum—LEPTNO; experiment: Glume Blotch of Wheat, in vivo whole plant, 24 Hour Protectant; details: for pest or weed control at 100 ppm: Leptosphaeria, read-out: LEPTNO in vivo 1 Day Protectant
[4] = test system: Stagonospora nodorum (Leptosphaeria nodorum—LEPTNO); experiment: In vitro fungal growth inhibition, Stagonospora nodorum (LEPTNO); assay type: cell-based; details: Leptosphaeria, read-out: LEPTNO in vitro Growth Inhibition
[5] = test system: Mycosphaerella graminicola (Septoria tritici—SEPTTR); experiment: In vitro fungal growth inhibition, Mycosphaerella graminicola (SEPTTR); assay type: cell-based; details: Zymoseptoria tritici, read-out: SEPTTR in vitro Growth Inhibition
Erysiphe graminis—ERYSGT = experiment: Powdery Mildew of Wheat, in vivo whole plant, 24 Hour Protectant; details: Erysiphe, read-out: ERYSGT in vivo 1 Day Protectant
[6] = test system: Rhizoctonia solani (RHIZSO); experiment: microbe, parasite or virus in culture; assay type: cell-based; details: Rhizoctonia solani, read-out: RHIZSO in vitro Growth Inhibition
Ustilago maydis (USTIMA) = experiment: microbe, parasite or virus in culture; assay type: cell-based; details: Mycosarcoma maydis, read-out: USTIMA in vitro Growth Inhibition
[7] = test system: Puccinia recondita—PUCCRT; experiment: Brown Rust of Wheat, in vivo whole plant, 24 Hour Protectant; details: for pest or weed control at 100 ppm: Puccinia, read-out: PUCCRT in vivo 1 Day Protectant
[8] = test system: Phytophthora infestans—PHYTIN; experiment: whole plant or invertebrate; assay type: in vivo; details: Phytophthora, in Solanum lycopersicum, 24 h, read-out: PHYTIN in vivo 1 Day Protectant
Septoria tritici—SEPTTR = experiment: Leaf Blotch of Wheat, in vivo whole plant, 24 Hour Protectant; details: for pest or weed control at 100 ppm: Zymoseptoria tritici, 24 h, read-out: SEPTTR in vivo 1 Day Protectant
[9] = 100 ppm spray, 24 hour protectant, wheat, control of fungal infection vs untreated plants
[10] = 100 ppm spray, wheat, 24 hour protectant, control of fungal infection vs untreated plants
[11] = 100 ppm spray, wheat, 24 hour protectant, % control of fungal infection vs untreated plants
[12] = wheat plants sprayed at 100 ppm, inoculated after 24 hours, control of fungal infection vs untreated plants

| SMILES | inhibition at 25 ppm [1] | inhibition at 25 ppm [2] | pest or weed control at 100 ppm [3, 9] | inhibition at 25 ppm ([4]; 25 ppm in growth medium) | inhibition at 25 ppm ([5]; 25 ppm in growth medium) | pest or weed control at 100 ppm (Erysiphe graminis—ERYSGT; [9]) | inhibition at 25 ppm [6] | inhibition at 25 ppm (Ustilago maydis (USTIMA)) | pest or weed control at 100 ppm [7, 9] | pest or weed control at 100 ppm [8] | pest or weed control at 100 ppm (Septoria tritici—SEPTTR; [9]) | other results |
| --- | --- | --- | --- | --- | --- | --- | --- | --- | --- | --- | --- | --- |
| CCCCCCCCCNC(=O)c1ncccc1O [Compound 201] | > 80% | < 80% | < 25% | < 80% | < 80% | < 25% | < 80% | < 80% | < 25% | < 25% | < 25% |  |
| COc1ccnc(C(=O)Nc2cccc(Oc3ccc(C(F)(F)F)cc3)c2)c1O [Compound 423] | > 80% | < 80% |  | < 80% | < 80% |  | < 80% | < 80% |  | < 25% |  | pest or weed control at 100 ppm [3, 10]: 25 to 74%; pest or weed control at 100 ppm (Erysiphe graminis—ERYSGT; [10]): < 25%; pest or weed control at 100 ppm [7, 10]: 25 to 74%; pest or weed control at 100 ppm (Septoria tritici—SEPTTR; [10]): 25 to 74% |
| CCC1(C)CC(NC(=O)c2nccc(OC)c2O)CC(C)(C)C1 (stereo not shown) [Compound 251] | < 80% | > 80% |  | > 80% | > 80% | < 25% | < 80% | < 80% |  | 25 to 74% |  | LEPTNO in vivo 1 Day Protectant [3, 9]: + +; PUCCRT in vivo 1 Day Protectant [7, 9]: + +; SEPTTR in vivo 1 Day Protectant (Septoria tritici—SEPTTR; [9]): + + |
| COc1ccnc(C(=O)Nc2ccc(Oc3cccc(Cl)c3)cc2)c1O [Compound 442] | > 80% | < 80% |  | > 80% | > 80% |  | < 80% | < 80% |  | 25 to 74% |  | pest or weed control at 100 ppm [3, 10]: < 25%; pest or weed control at 100 ppm (Erysiphe graminis—ERYSGT; [10]): < 25%; pest or weed control at 100 ppm [7, 10]: 25 to 74%; pest or weed control at 100 ppm (Septoria tritici—SEPTTR; [10]): < 25% |
| C[C@H]1C2CC([C@H]3CCC[C@@H]23)[C@@H]1NC(=O)c1ncccc1O (stereo partly shown) [Compound 207] | > 80% | < 80% | < 25% | > 80% | > 80% | < 25% | < 80% | < 80% | < 25% | < 25% | < 25% |  |
| COc1ccnc(C(=O)N[C@H]2COC(=O)[C@H](Cc3ccccc3)[C@@H](OC(=O)C(C)C)[C@H](C)OC2=O)c1OC(=O)C(C)(C)C [Compound 605] | < 80% | < 80% |  | < 80% | < 80% |  | < 80% | < 80% |  | < 25% |  | LEPTNO in vivo 1 Day Protectant [3, 11]: + +; pest or weed control at 100 ppm (Erysiphe graminis—ERYSGT; [11]): < 25%; PUCCRT in vivo 1 Day Protectant [7, 11]: + +; SEPTTR in vivo 1 Day Protectant (Septoria tritici—SEPTTR; [11]): + + |
| O=C(Nc1cccc(Oc2cccc(C(F)(F)F)c2)c1)c1nc(Br)ccc1O [Compound 495] | < 80% | < 80% |  |  |  |  | < 80% | < 80% |  | < 25% |  | pest or weed control at 100 ppm [3, 12]: < 25%; inhibition at 25 ppm ([4]; 25 ppm in the growth medium): < 80%; inhibition at 25 ppm ([5]; 25 ppm in the growth medium): < 80%; pest or weed control at 100 ppm (Erysiphe graminis—ERYSGT; [12]): 25 to 74%; pest or weed control at 100 ppm [7, 12]: 25 to 74%; pest or weed control at 100 ppm (Septoria tritici—SEPTTR; [12]): 25 to 74% |
| COc1ccnc(C(=O)NCC#CCCl)c1O [Compound 239] | < 80% | < 80% | 25 to 74% | < 80% | < 80% | < 25% | < 80% | < 80% | 25 to 74% | < 25% | 25 to 74% |  |
